Biological target: PCP receptors
Assay: Tritiated TCP binding, designated RBS1
Description: Tritiated TCP binding, designated RBS1, was carried out essentially as described in J Pharmacol Exp Ther, 238, 739-748 (1986).

c1csc(C2(N3CCCCC3)CCCCC2)c1 [TCP, 1-[1-(2-thienyl)cyclohexyl]piperidine]
IC50: 9 nM
